Patent publication US7264948B2, “Polypeptides for increasing mutant CFTR channel activity” (University of Pittsburgh, priority 2002, dated 2007)
Ends that are not written are not given here.

Key:
ΔF508 CFTR = test: Whole cell patch clamp of forskolin-stimulated currents; conditions: primary human airway (HBE) cells, four hours treatment, 5-10 μM forskolin, 37° C.
Method: To increase the specificity of the method, a whole cell patch clamp method can be utilized to verify the SPQ data using PTD-5 ΔF508 NBD1/RD. Briefly, cells at 50% confluence are treated with PTD fusion peptide or adenovirus carrying ΔF508 NBD1/RD for four hours and subjected to whole cell patch clamp by standard methods. Currents are recorded at −60 mV and current-voltage relations are obtained before and after the cells are stimulated with 5-10 μM forskolin; all procedures are performed at 37° C. The bath solution contained (in mM) 150 NaCl, 2 MgCl2, 1 EGTA, 5 HEPES and 0.5 CaCl2 (pH=7.3). The pipette solution contains (in mM) 150 NaCl, 2 MgCl2, 5 HEPES and 2 CaCl2 (pH=7.3). Data is amplified using an Axopatch 200A patch-clamp amplifier and recorded to disk by a Digidata A/D interface for later analysis with pCLAMP8. The data is low-pass filtered and digitized at 1 kHz.

[1] = target: T1, interaction of Hdj2 and ΔF508 CFTR (Homo sapiens, UniProt P31689); test: Co-immunoprecipitation of Hdj2 with CFTR in KK cell lysate treated with fusion protein; format: binding
T1 construct: endogenous in cells; host or cells: KK bronchial epithelial cell line (lysate)
Method: To test whether PTD-5 ΔF508NBD1-RD could inhibit interaction of Hdj2 and ΔF508 CFTR, KK cells, a bronchial epithelial cell line carrying the ΔF508 mutation, were lysed with a lysis buffer, the lysate was treated with PTD5-NBD1-ΔF-RD and equal amount lysates were used to perform immunoprecipitation (IP) using CFTR antibodies, M3A7 (1 μg) and L12B4 (1 μg) and protein […] beads. The precipitants were washed five times with lysis buffer. Hjd2 that co-precipitated with CFTR was fractionated by SDS-PAGE, transferred to PVDF membrane and detected by immunoblotting (IB).

human airway cells = test: Organelle distribution of PTD-5-avidin-β-gal, gradient ultracentrifugation and β-gal activity; format: cell-based; conditions: 37° C., purified organelles, FIG. 5
Method: To test the distribution of PTD5 facilitating uptake into human airway cells, the ability of PTD5 to deliver β-gal protein to a variety of cell organelles was examined by separation of organelles using gradient ultra-centrifugation. PTD-5-avidin-β-gal and a control peptide, (Con.P)-avidin-β-gal, were added to the media bathing the airway cell cultures and incubated at 37° C. Three hours post-addition of the complexes, the cells were washed extensively and collected for organelle isolation by gradient ultracentrifugation. The purified cell organelles were tested for β-gal activity using a Galacto-light kit (Tropix, Inc.).

mouse lungs = test: Intra-tracheal delivery of PTD5 streptavidin-Cy3 complexes into mouse lungs, two-photon microscopy; format: in vivo; conditions: 50 μl of 200 μM, three hours post-injection, FIG. 3
Method: To determine if the PTDs can facilitate protein uptake by mouse lungs, the PTD5 streptavidin-Cy3 complexes were delivered into mouse lungs intra-tracheally. The treated mice were sacrificed three hours post-delivery and tissue from the lungs was scanned by two-photon microscopy. 50 μl of 200 μM solution of the PTD-5-β-Cy3 was injected intra-tracheally into mouse lungs. Three hours post-injection, the mice were sacrificed, and the lungs were analyzed by two photon confocal microscopy for internalization. A control peptide (Con.P)-Cy3 was used as a control.

[2] = test system: Calu3 cells and human bronchial epithelial cells (KK); test: PTD-5-facilitated delivery of streptavidin-Cy3, confocal microscopy; format: cell-based; conditions: three hours, 37° C., FIG. 2
Method: (§1) To determine whether the PTD5 polypeptide (RRQRRTSKLMKR) was able to facilitate uptake into different cell types including differentiated airway epithelial cells and Calu3 cells, the ability of PTD5 to deliver avidin-β-Gal and streptavidin Cy3 to human airway cells and Calu3 cells was examined.
PTD-5 was also coupled to streptavidin-Cy 3, which was added to Calu3 cell and human bronchial epthelial cells (KK) cultures at 37° C. (FIG. 2). A peptide (Con.P)-strepavdin-Cy3 was used as a control. Three hours post addition of the PTD-5-streptavidin-Cy 3, the intracellular localization of the red (Cy 3) fluorescent signals were visualized by confocal microscopy. The nuclei were counterstained using cytox green.

[3] = test system: primary human airway epithelial cells (HBE144), polarized canine kidney cells (MDCK) and other cell types; test: PTD-5-facilitated delivery of avidin-β-gal complex, X-gal staining; format: cell-based; conditions: 150 nM PTD-5-avidin-β-gal complex, three hours, FIG. 1
Method: as §1
PTD-5 is a positively charged transduction peptide, which was biotinylated so that it can be coupled to avidin marker complexes. 150 nM of the PTD-5-avidin-β-gal complex was added to the cell culture media of various cell lines (FIG. 1). Three hours post addition of the complex, the indicated cells were fixed and stained with X-gal.

## PTD5-ΔF508 NBD1/RD fusion protein: inline fusion of PTD-5 with the ΔF508 CFTR NBD1-RD region, histidine tag, expressed in E. coli, nickel column purified
ΔF508 CFTR
  forskolin-stimulated whole cell currents: forskolin-stimulated currents typical of those associated with CFTR
[1]; listed as PTD5 ΔF508NBD1-RD fusion protein
  interaction of Hdj2 with ΔF508 CFTR (co-immunoprecipitation): capable of inhibiting the interaction of Hdj2 with the ΔF508 CFTR protein
[1]; listed as PTD-5-ΔF508 NBD1-RD
  interaction of Hdj2 with ΔF508 CFTR (co-immunoprecipitation): disrupts ΔF508 CFTR interaction with chaperone Hdj2

## RRQRRTSKLMKR (also: biotinylated (position not given here)) [PTD-5, biotinylated for coupling to avidin marker complexes]
Human airway cells
  delivery of avidin-β-gal complex to cell organelles (β-gal activity): able to deliver the avidin-β-gal complex to ER, Golgi, mitochondria, and nuclei
Mouse lungs
  Cy3 signal in lungs: significant Cy3 signal
[2]
  delivery of streptavidin-Cy3 complex into cells (confocal microscopy): delivered the streptavidin-Cy3 complex
[3]
  delivery of avidin-β-gal complex into cells (X-gal staining): able to deliver the avidin-β-gal complex

## ARPLEHGSDKAT (control, Con P) [reference compound]
Human airway cells
  delivery of avidin-β-gal complex to cell organelles (β-gal activity): did not localize to any of the organelles
Mouse lungs
  Cy3 signal in lungs: weak signals
